Measured values taken from patent US20090048269A1 (AstraZeneca AB, priority 2007, published 2009).

Target: T1, human ALK5 (Homo sapiens, UniProt P36897)
T1 sequence (P36897 162-503): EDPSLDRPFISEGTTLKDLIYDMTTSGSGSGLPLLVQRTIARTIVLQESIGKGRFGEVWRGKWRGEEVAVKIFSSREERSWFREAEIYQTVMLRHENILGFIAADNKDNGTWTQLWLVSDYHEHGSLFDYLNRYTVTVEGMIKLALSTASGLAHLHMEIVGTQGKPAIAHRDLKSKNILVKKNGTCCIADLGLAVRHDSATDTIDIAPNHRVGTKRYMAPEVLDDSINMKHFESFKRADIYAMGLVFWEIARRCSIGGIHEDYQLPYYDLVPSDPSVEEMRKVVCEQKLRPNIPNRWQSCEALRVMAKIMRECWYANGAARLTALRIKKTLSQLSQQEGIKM
Assay: ALK5 Enzyme Assay 2 (fluorescence polarisation probe displacement)
Format: binding
Design: 6His tagged human ALK5 (residues162-503) was grown and purified from insect cells; 6His; made in house; host or cells: insect cells
Settings: read-out: EAA2: activity (μM) using Enzyme Assay 2
Experimental: The ability of a compound to bind and inhibit ALK5 can be measured by its capacity to displace a probe molecule from recombinant ALK5 in an in vitro assay. Provided the probe molecule is derivatised with a fluorescent probe or is fluorescent itself, the binding affinity can be measured using Fluorescence Polarisation (FP). […] Assay measurements were performed in 50 mM HEPES pH7.4, 10 mM MgCl2, 1 mM DTT, 0.01% CHAPS in a final assay volume of 12 μl. Briefly 6 μl of ALK5 protein, final concentration of 3 μg/mL, was added to each well of a 384 well assay plate containing 12 nL of each concentration of test compound dissolved in DMSO. 6 μL of a solution containing an ALK5 FP probe ((2Z)-3-(6-{4-[2-({4-[(6-chloro[1,3]dioxolo[4,5-b]pyridin-7-yl)amino]-5-(1-methylethoxy)quinazolin-7-yl}oxy)ethyl]piperazin-1-yl}-6-oxohexyl)-2-[(2E,4E)-5-(3-ethyl-1,1-dimethyl-6,8-disulfo-1H-benzo[e]indolium-2-yl)penta-2,4-dien-1-ylidene]-1,1-dimethyl-6-sulfo-2,3-dihydro-1H-benzo[e]indole-8-sulfonate), final concentration 50 nM, and ATP, final concentration 1 μM.

Row | SMILES | IC50 [µM]
1 | Cc1ccc(Oc2ccnc(Nc3ccc(S(=O)(=O)NCCN4CCS(=O)(=O)CC4)cc3)c2)c(C)n1 [Example 132, 4-{[4-(2,6-Dimethylpyridin-3-yl)oxypyridin-2-yl]amino}-N-[2-(1,1-dioxo-1,4-thiazinan-4-yl)ethyl]benzenesulfonamide] | 0.142
2 | Cc1ccc(Oc2ccnc(Nc3ccc(S(=O)(=O)NCCN4CCN(C)CC4)cc3)c2)c(C)n1 [Example 133, 4-{[4-(2,6-Dimethylpyridin-3-yl)oxypyridin-2-yl]amino}-N-[2-(4-methylpiperazin-1-yl)ethyl]benzenesulfonamide] | 0.0932
3 | Cc1ccc(Oc2ccnc(Nc3ccc(S(=O)(=O)NCCN4CCCCC4)cc3)c2)c(C)n1 [Example 134, 4-{[4-(2,6-Dimethylpyridin-3-yl)oxypyridin-2-yl]amino}-N-(2-piperidin-1-ylethyl)benzenesulfonamide] | 0.199
4 | Cc1ccc(Oc2ccnc(Nc3ccc(S(=O)(=O)NCCn4cccn4)cc3)c2)c(C)n1 [Example 136, 4-{[4-(2,6-Dimethylpyridin-3-yl)oxypyridin-2-yl]amino}-N-(2-pyrazol-1-ylethyl)benzenesulfonamide] | 0.101
5 | Cc1ccc(Oc2ccnc(Nc3ccc(C(=O)NCCn4cccn4)cc3)c2)c(C)n1 [Example 140, 4-{[4-(2,6-Dimethylpyridin-3-yl)oxypyridin-2-yl]amino}-N-(2-pyrazol-1-ylethyl)benzamide] | 0.0208
6 | Cc1ccc(Oc2ccnc(Nc3ccc(C(=O)NCCN4CCCC4=O)cc3)c2)c(C)n1 [Example 141, 4-{[4-(2,6-dimethylpyridin-3-yl)oxypyridin-2-yl]amino}-N-[2-(2-oxopyrrolidin-1-yl)ethyl]benzamide] | 0.0693
7 | Cc1ccc(Oc2ccnc(Nc3ccc(C(=O)NCCNS(=O)(=O)N(C)C)cc3)c2)c(C)n1 [Example 142, 4-{[4-(2,6-Dimethylpyridin-3-yl)oxypyridin-2-yl]amino}-N-[2-(dimethylsulfamoylamino)ethyl]benzamide] | 0.0506
8 | Cc1ccc(Oc2ccnc(Nc3ccc(CC#N)cc3)c2)c(-c2ccccn2)n1 [Example 144, 2-(4-{[4-(6-Methyl-2-pyridin-2-ylpyridin-3-yl)oxypyridin-2-yl]-amino}phenyl)acetonitrile] | 0.0276
9 | Cc1ccc(Oc2ccnc(Nc3ccccn3)c2)c(-c2ccccn2)n1 [Example 145, 4-(6-Methyl-2-pyridin-2-ylpyridin-3-yl)oxy-N-pyridin-2-yl-pyridin-2-amine] | 0.00825
10 | Cc1ccc(Oc2ccnc(Nc3ccc(C(N)=O)cc3)c2)c(-c2ccccn2)n1 [Example 146, 4-{[4-(6-Methyl-2-pyridin-2-ylpyridin-3-yl)oxypyridin-2-yl]-amino}benzamide] | 0.0152
11 | Cc1ccc(Oc2ccnc(Nc3ccc(C(N)=O)cc3)c2)c(-c2ccccc2)n1 [Example 151, 4-{[4-(6-Methyl-2-phenylpyridin-3-yl)oxypyridin-2-yl]amino}-benzamide] | 0.0137
12 | Cc1ccc(Oc2ccnc(Nc3ccccn3)c2)c(C)n1 [Example 153, 4-(2,6-Dimethylpyridin-3-yl)oxy-N-pyridin-2-ylpyridin-2-amine] | 0.0238
13 | Cc1ccc(Oc2ccnc(Nc3ccc(CO)cc3)c2)c(C)n1 [Example 154, (4-{[4-(2,6-Dimethylpyridin-3-yl)oxypyridin-2-yl]amino}phenyl)-methanol] | 0.0197
14 | Cc1ccc(Oc2ccnc(Nc3ccc(CC#N)cc3)c2)c(-c2ccc(F)cc2)n1 [Example 155, 2-[4-({4-[2-(4-Fluorophenyl)-6-methylpyridin-3-yl]oxypyridin-2-yl}amino)phenyl]acetonitrile] | 0.0816
15 | Cc1ccc(Oc2ccnc(Nc3ccc(S(N)(=O)=O)cc3)c2)c(-c2ccc(F)cc2)n1 [Example 156, 4-({4-[2-(4-Fluorophenyl)-6-methylpyridin-3-yl]oxypyridin-2-yl}amino)benzenesulfonamide] | 0.0454
16 | Cc1ccc(Oc2ccnc(Nc3ccc(CC#N)cc3)c2)c(-c2ccco2)n1 [Example 159, 2-[4-({4-[2-(Furan-2-yl)-6-methylpyridin-3-yl]oxypyridin-2-yl}-amino)phenyl]acetonitrile] | 0.00299
17 | Cc1ccc(Oc2ccnc(Nc3ccccn3)c2)c(-c2ccco2)n1 [Example 161, 4-[2-(Furan-2-yl)-6-methylpyridin-3-yl]oxy-N-pyridin-2-yl-pyridin-2-amine] | 0.00855
18 | COc1cc(Nc2cc(Oc3ccc(C)nc3-c3ccco3)ccn2)cc(OC)c1OC [Example 165, 4-[2-(Furan-2-yl)-6-methylpyridin-3-yloxy]-N-(3,4,5-trimethoxy-phenyl)pyridin-2-amine] | 0.0126
19 | CCCc1nc(C)ccc1Oc1ccnc(Nc2cc(OC)c(OC)c(OC)c2)c1 [Example 166, 4-(6-Methyl-2-propylpyridin-3-yloxy)-N-(3,4,5-trimethoxy-phenyl)pyridin-2-amine] | 0.597

Now from value to compound:

Row | IC50 [µM] | SMILES
20 | 0.0189 | Cc1ccc(Oc2ccnc(Nc3ccc(C(=O)NC4CCN(C)CC4)cc3)c2)c(C)n1 [Example 130, 4-[4-(2,6-Dimethylpyridin-3-yloxy)pyridin-2-ylamino]-N-(1-methylpiperidin-4-yl)benzamide]
21 | 0.256 | Cc1ccc(Oc2ccnc(Nc3ccc(S(=O)(=O)NCCN4CCOCC4)cc3)c2)c(C)n1 [Example 131, 4-[4-(2,6-Dimethylpyridin-3-yloxy)pyridin-2-ylamino]-N-(2-morpholinoethyl)benzenesulfonamide]
22 | 0.12 | Cc1ccc(Oc2ccnc(Nc3ccc(S(=O)(=O)NCCn4ccnc4)cc3)c2)c(C)n1 [Example 135, 4-{[4-(2,6-Dimethylpyridin-3-yl)oxypyridin-2-yl]amino}-N-(2-imidazol-1-ylethyl)benzenesulfonamide]
23 | 0.163 | Cc1ccc(Oc2ccnc(Nc3ccc(S(=O)(=O)NCCN4CC[C@H](F)C4)cc3)c2)c(C)n1 [Example 137]
24 | 0.00921 | Cc1ccc(Oc2ccnc(Nc3ccc(CO)cc3)c2)c(-c2ccccn2)n1 [Example 147, (4-{[4-(6-Methyl-2-pyridin-2-ylpyridin-3-yl)oxypyridin-2-yl]-amino}phenyl)methanol]
25 | 0.0339 | Cc1ccc(Oc2ccnc(Nc3ccc(CC#N)cc3)c2)c(-c2ccccc2)n1 [Example 148, 2-(4-{[4-(6-Methyl-2-phenylpyridin-3-yl)oxypyridin-2-yl]-amino}phenyl)acetonitrile]
26 | 0.014 | Cc1ccc(Oc2ccnc(Nc3ccc(S(N)(=O)=O)cc3)c2)c(-c2ccccc2)n1 [Example 149, 4-{[4-(6-Methyl-2-phenylpyridin-3-yl)oxypyridin-2-yl]amino}-benzenesulfonamide]
27 | 0.0047 | Cc1ccc(Oc2ccnc(Nc3ccccn3)c2)c(-c2ccccc2)n1 [Example 150, 4-(6-Methyl-2-phenylpyridin-3-yl)oxy-N-pyridin-2-ylpyridin-2-amine]
28 | 0.00705 | Cc1ccc(Oc2ccnc(Nc3ccc(CO)cc3)c2)c(-c2ccccc2)n1 [Example 152, (4-{[4-(6-Methyl-2-phenylpyridin-3-yl)oxypyridin-2-yl]amino}-phenyl)methanol]
29 | 0.0474 | Cc1ccc(Oc2ccnc(Nc3ccc(C(N)=O)cc3)c2)c(-c2ccc(F)cc2)n1 [Example 157, 4-({4-[2-(4-Fluorophenyl)-6-methylpyridin-3-yl]oxypyridin-2-yl}-amino)benzamide]
30 | 0.0315 | Cc1ccc(Oc2ccnc(Nc3ccc(CO)cc3)c2)c(-c2ccc(F)cc2)n1 [Example 158, [4-({4-[2-(4-Fluorophenyl)-6-methylpyridin-3-yl]oxypyridin-2-yl}-amino)phenyl]methanol]
31 | 0.0128 | Cc1ccc(Oc2ccnc(Nc3ccc(S(N)(=O)=O)cc3)c2)c(-c2ccco2)n1 [Example 160, 4-({4-[2-(Furan-2-yl)-6-methylpyridin-3-yl]oxypyridin-2-yl}-amino)benzenesulfonamide]
32 | 0.0204 | Cc1ccc(Oc2ccnc(Nc3ccc(C(N)=O)cc3)c2)c(-c2ccco2)n1 [Example 162, 4-({4-[2-(Furan-2-yl)-6-methylpyridin-3-yl]oxypyridin-2-yl}-amino)benzamide]
33 | 0.00528 | Cc1ccc(Oc2ccnc(Nc3ccc(CO)cc3)c2)c(-c2ccco2)n1 [Example 163, [4-({4-[2-(Furan-2-yl)-6-methylpyridin-3-yl]oxypyridin-2-yl}-amino)phenyl]methanol]
34 | 0.0275 | COc1cc(Nc2cc(Oc3ccc(C)nc3N3CCCC3)ccn2)cc(OC)c1OC [Example 164, 4-(6-Methyl-2-(pyrrolidin-1-yl)pyridin-3-yloxy)-N-(3,4,5-trimethoxyphenyl)pyridin-2-amine]
35 | 0.0568 | COc1cc(Nc2cc(Oc3ccc(C)nc3C3CCCO3)ccn2)cc(OC)c1OC (centres unmarked) [Example 167, 4-[6-Methyl-2-(oxolan-2-yl)pyridin-3-yl]oxy-N-(3,4,5-trimethoxy-phenyl)pyridin-2-amine]
